For one experiment, the system named is MP2 pODD flank tumors. Briefly: in vivo bioluminescent imaging, heterotopic MP2 pODD flank tumors. The arrangement: species or system mouse. On the procedure: In vivo bioluminescent imaging. […] For heterotopic flank tumor experiments, 1×10^6 HeLa pODD or 5×10^6 MP2 cells were injected subcutaneously (s.c.) into the flanks of 6-wk-old female (HeLa pODD) or male (N1P2 pODD or MP2 CMV) immunocompromised athymic nu/nu mice. Replicate experiments with groups of 4-6 mice were used for statistical reproducibility. Caliper measurements of opposing diameters were used to calculate the tumor volumes using the modified ellipsoidal formula: tumor volume=(length×width^2)[23]. Upon reaching 100 mm^3, the animals were given 100 mg/kg D-luciferin intraperitoneally and bioluminescence images were captured using IVIS In Vivo Imaging System Lumina II (Perkin Elmer Inc). […] Bioluminescent data were analyzed using living Image software (Perkin Elmer Inc) and calculated as photon flux/sec. Obtained individual photon flux peak values were then normalized to baseline for each mouse and averaged per group. Gas inhalation experiments were performed by switching medical air and carbogen gas sources for the IVIS anesthesia vaporizer. Initial baselines were established in medical air under anesthesia, then the mice were subjected to 30 minutes of either medical air or carbogen rebreathing in an air-tight chamber while awake. After 30 minutes, photon flux was established in respective gas sources as a carrier for isoflurane anesthesia.

Experiment [1] has as its system pODD-Luc reporter in MP2 pODD cells. The experiment is described as follows: in vitro luciferase assay, MP2 pODD cells. The conditions noted are these: one hour of 10 μM. It is filed as cell-based, human. How it is done:
PCR-amplified cassette was then digested with Asci and Pmel restriction enzymes and ligated into pLenti-C-Myc-DDK-IRES-Puro. Correct orientation and sequence was confirmed by Sanger DNA sequencing. HeLa pODD and MIP2 pODD transfectants were selected with 2 μg/ml Puromycin for two weeks. Stable MP2 CMV Cells were generated by lentiviral transduction of MP2 cells with pLenti-CMV-Puro-Luc lentiviral vector (Addgene#17477) with 2 Puromycin selection for two weeks. Cells were grown in Dulbecco's Modified Eagle's Medium (DMEM) containing 25 mM D-glucose, 4 mM glutamine and 44 mM sodium bicarbonate in 5% CO2, if not stated otherwise. The cells were exposed to hypoxia (1% O2) in H35 Hypoxic Workstation (Hypoxygen) with 5% CO2 at 37° C. In some experiments, we used a hypoxia mimetic dimethyloxalyglycine (DMOG) as described. Cell counts and cellular proliferation were established using hemocytometer to determine the cell number and trypan blue exclusion assay to establish the fraction of viable/dead cells. All human cell lines have been authenticated using STR profiling within the past 3 years. All experiments were performed with mycoplasma-free cells.
In vitro luciferase Assay. Proteins were extracted using Luciferase Assay Lysis Buffer (125 mM Tris-HCl, pH 7.5, 11.0 mM DTT, 10 mM EGTA, 50% Glycerol, 5% Triton X-100) and 200 μl/sample were transferred to 96-well plate and D-luciferin was added to the final concentration of 150 μg/ml immediately before the assay. Bioluminescence was measured on a Synergy H1 Hybrid Plate Reader (Biotek) after a 10-minute incubation period (10 slsample, Gain=150) in triplicates.

Another experiment deals with T1, PDE10A (Homo sapiens, UniProt Q9Y233).
T1 construct: purchased BPS Bioscience
Briefly: PDE10A purified enzyme activity assay (BPS Bioscience). In kind it is biochemical. The text has this: We therefore defined the structure activity relationship (SAR) of PPV relative to two assays: inhibition of cellular OCR by Seahorse XE assay, and inhibition of PDE10A by purified enzyme activity (PDE10A activity assay, BPS Bioscience). […] Because the top portion of PPV was a planar structure like that of rotenone, we decided to focus our attention on the lower portion of the molecule.

A further experiment addresses ETC complex 1 (C1) (Homo sapiens, UniProt O75251+O75306+P03886). Briefly: inhibition of cellular OCR by Seahorse XE assay. In kind it is cell-based. The text has this:
PPVs PDE and mitochondrial activities are chemically separable. Papaverine has been traditionally thought to be effective as a vasodilator for the treatment of conditions including erectile dysfunction because it can inhibit PDE10A (like PDE 5 inhibitors sildenafil and tadalafil). However, PDE inhibition is not responsible for OCR effects in vitro, so we postulated that there are two activities in PPV, one inhibiting ETC complex 1 (C1) and one inhibiting PDE10A that may reside in different parts of the molecule. We therefore defined the structure activity relationship (SAR) of PPV relative to two assays: inhibition of cellular OCR by Seahorse XE assay, and inhibition of PDE10A by purified enzyme activity (PDE10A activity assay, BPS Bioscience). Because PPV can compete with rotenone at complex 1 (23), we reasoned that they may be binding the same site and therefore the structures would be similar relative to their target. Because the top portion of PPV was a planar structure like that of rotenone, we decided to focus our attention on the lower portion of the molecule.

The next experiment has as its system murine tumors. Briefly: murine tumor hypoxia and radiation response. The conditions noted are these: mouse, in vivo.

Residues, ends and D or L forms follow the SMILES beside them. *: point of attachment. Cbz = O=C(OCc1ccccc1)*

T1 sequence (Q9Y233 whole entry): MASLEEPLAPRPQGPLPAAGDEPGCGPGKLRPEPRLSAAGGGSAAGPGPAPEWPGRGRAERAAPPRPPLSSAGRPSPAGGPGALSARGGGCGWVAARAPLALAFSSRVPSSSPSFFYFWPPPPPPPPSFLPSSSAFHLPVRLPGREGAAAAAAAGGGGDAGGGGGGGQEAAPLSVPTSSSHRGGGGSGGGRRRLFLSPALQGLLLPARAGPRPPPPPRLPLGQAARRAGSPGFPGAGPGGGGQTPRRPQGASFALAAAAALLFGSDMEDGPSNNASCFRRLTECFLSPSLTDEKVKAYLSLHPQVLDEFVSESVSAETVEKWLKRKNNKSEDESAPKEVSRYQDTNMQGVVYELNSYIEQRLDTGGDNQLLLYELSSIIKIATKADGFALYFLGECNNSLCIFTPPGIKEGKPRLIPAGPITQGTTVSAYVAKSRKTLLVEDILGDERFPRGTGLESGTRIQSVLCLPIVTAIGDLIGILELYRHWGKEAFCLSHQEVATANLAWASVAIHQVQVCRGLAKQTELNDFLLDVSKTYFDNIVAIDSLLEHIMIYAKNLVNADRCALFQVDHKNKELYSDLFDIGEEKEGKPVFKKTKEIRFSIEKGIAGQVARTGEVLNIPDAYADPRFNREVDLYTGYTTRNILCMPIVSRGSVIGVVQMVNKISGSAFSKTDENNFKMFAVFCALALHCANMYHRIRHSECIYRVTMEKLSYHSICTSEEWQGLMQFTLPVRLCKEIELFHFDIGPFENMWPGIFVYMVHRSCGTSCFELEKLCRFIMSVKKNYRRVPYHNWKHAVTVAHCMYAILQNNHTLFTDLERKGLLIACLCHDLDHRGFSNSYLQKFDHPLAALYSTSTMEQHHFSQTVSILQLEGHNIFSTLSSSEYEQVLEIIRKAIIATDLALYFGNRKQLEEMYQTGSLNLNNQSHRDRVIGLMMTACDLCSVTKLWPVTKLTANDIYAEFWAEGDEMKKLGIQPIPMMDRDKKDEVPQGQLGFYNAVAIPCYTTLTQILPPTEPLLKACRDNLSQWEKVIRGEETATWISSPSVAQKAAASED
ETC complex 1 (C1), sequence (O75251 39-213): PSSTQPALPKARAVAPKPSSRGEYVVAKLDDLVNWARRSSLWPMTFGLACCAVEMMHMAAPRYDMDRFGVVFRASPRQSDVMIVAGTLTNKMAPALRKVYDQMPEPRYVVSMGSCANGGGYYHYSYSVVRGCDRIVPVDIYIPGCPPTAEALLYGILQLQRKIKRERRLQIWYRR
ETC complex 1 (C1), sequence (O75306 34-463): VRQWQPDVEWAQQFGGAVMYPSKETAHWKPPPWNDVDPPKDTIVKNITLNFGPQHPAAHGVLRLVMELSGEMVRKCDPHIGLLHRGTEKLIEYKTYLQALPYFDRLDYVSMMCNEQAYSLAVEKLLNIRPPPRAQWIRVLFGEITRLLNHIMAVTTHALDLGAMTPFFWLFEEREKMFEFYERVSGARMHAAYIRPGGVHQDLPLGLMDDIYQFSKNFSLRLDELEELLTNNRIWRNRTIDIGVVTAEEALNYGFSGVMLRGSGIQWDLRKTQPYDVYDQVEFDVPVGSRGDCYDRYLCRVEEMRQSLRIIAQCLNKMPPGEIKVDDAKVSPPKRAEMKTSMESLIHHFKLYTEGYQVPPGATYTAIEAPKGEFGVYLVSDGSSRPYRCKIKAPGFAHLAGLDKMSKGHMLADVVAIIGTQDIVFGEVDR
ETC complex 1 (C1), sequence (P03886 whole entry): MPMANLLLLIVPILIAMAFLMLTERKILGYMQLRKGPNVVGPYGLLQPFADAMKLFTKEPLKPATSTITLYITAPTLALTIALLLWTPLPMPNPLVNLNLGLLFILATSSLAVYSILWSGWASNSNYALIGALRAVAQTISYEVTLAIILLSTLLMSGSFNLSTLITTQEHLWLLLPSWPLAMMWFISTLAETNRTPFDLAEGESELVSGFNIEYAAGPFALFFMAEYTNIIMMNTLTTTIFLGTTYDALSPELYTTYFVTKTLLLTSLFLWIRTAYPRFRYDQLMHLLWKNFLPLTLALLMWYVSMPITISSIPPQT

For the molecule `O=[N+]([O-])c1ccc(O)c([N+](=O)[O-])c1` [2,4-DNP, 2,4-dinitrophenol], in the experiment on MP2 pODD flank tumors (single intraperitoneal dose of 20 mg/kg), the “increase of photon flux compared to baseline” value is recorded as 1.6 ×. Turning to `O=C(O)C(Cl)Cl` [DCA, Dichloroacetate], in the experiment with MP2 pODD flank tumors (intraperitoneal 75 mg/kg), the “increase of photon flux” value was found to be 1.8 ×. As to `CC(C)C[C@@H](C=O)NC(=O)[C@H](CC(C)C)NC(=O)[C@H](CC(C)C)NC(=O)OCc1ccccc1` [MG132] (Cbz-Leu-Leu-Leu-aldehyde), in experiment [1], the “increase in pODD-Luc activity compared to 24 h hypoxia” value is recorded as 70 fold and the “induction of pODD-Luc activity compared to normoxia” value stood at 377 fold.

In the case of `COc1cc2ccnc(Cc3cc(C)cc(C)c3)c2cc1OC` [SMV23], the “PDE inhibition IC25” value on PDE10A (dose response analysis) was determined as 500 nM. For the same molecule, on PDE10A (vs C1), the “PDE10A inhibitor selectivity” value is “relatively pure”.

As for `COc1ccc(OCc2nccc3cc(OC)c(OC)cc23)cc1OC` [SMV37], the “mitochondrial activity” value on ETC complex 1 (C1) is “retain mitochondrial activity”. At ETC complex 1 (C1) (vs PDE10A), the “C1 inhibitor selectivity” value is listed as “relatively pure”. Besides, in the experiment with murine tumors, the “radiation response” value is given as “increase radiation response of murine tumors” and the “tumor hypoxia” value is given as “reduce tumor hypoxia”. With `CC(C)C[C@H](NC(=O)[C@H](Cc1ccccc1)NC(=O)c1cnccn1)B(O)O` [bortezomib], the “photon flux” value in the experiment with MP2 pODD flank tumors (1 mg/kg intraperitoneally, 2 hours post injection) was “significant increase of photon flux”.
